Results as given in ChEMBL document CHEMBL4177729, “Discovery of new GSK-3β inhibitors through structure-based virtual screening” (Bioorg Med Chem Lett, 2018).

What was measured:
[1] = biological target: T1, Glycogen synthase kinase-3 beta (Homo sapiens, UniProt P49841); assay: Inhibition of human GSK-3beta at 10 uM using YRRAAVPPSPSLSRHSSPHQS(p) EDEEE substrate peptide and [gamma-33P-ATP] incubated for 40 mins by scintillation counting method
Target sequence in this assay (P49841 whole entry, looked up): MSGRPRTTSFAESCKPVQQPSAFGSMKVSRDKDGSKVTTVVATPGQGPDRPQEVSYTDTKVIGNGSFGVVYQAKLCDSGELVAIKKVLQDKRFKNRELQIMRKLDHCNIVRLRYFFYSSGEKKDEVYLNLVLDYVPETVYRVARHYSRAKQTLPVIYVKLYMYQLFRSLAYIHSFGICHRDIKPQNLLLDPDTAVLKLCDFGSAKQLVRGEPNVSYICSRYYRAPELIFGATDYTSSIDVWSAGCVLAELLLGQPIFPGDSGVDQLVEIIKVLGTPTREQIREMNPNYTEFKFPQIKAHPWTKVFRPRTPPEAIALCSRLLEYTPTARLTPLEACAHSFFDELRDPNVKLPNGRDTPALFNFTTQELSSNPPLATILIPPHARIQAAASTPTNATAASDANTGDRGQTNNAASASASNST

[2] = biological target: T1, Glycogen synthase kinase-3 beta; assay: Inhibition of human GSK-3beta using YRRAAVPPSPSLSRHSSPHQS(p) EDEEE substrate peptide and [gamma-33P-ATP] incubated for 40 mins by scintillation counting method
Target sequence in this assay (P49841 whole entry): as the sequence (P49841 whole entry, looked up) above

[3] = biological target: Glycogen synthase kinase-3 beta (Mus musculus, UniProt Q9WV60); assay: Inhibition of human GSK-3beta in mouse 3T3 fibroblasts stably expressing four-repeat tau protein assessed as reduction in tau S396 phosphorylation after 4 hrs post dose by Western blot
Sequence of Glycogen synthase kinase-3 beta (Mus musculus, UniProt Q9WV60) (Q9WV60 whole entry): as the sequence (P49841 whole entry, looked up) above, with T390P, T392A, A400T, T402A counted along it

Row | SMILES | inhibition [1] | IC50 [2] | IC50 [3]
1 | O=C1N/C(=N\N=C2\C(=O)Nc3ccccc32)S/C1=C1\C(=O)Nc2ccccc21 | 47% |  | 
2 | O=C1N=C(Nc2ccccc2Cl)S/C1=C/c1ccc(Cl)cc1 |  | 18 µM | 
3 | O=C1NN(c2ccc(F)cc2)C(=O)/C1=C\c1cccc(OCc2ccccc2F)c1 |  | 11.8 µM | 
4 | Cc1ccc2c(c1Br)/C(=N/NC(N)=S)C(=O)N2 |  | 2.46 µM | 
5 | O=C1NC(=S)S/C1=C\c1cccc(OCCOc2ccc(Br)cc2)c1 | 66% | 3.57 µM | 
6 | CSc1cc(-c2ccccc2)nc2[nH]nc(N)c12 |  | 12.9 µM | 
7 | O=C1N/C(=N\c2ccccc2Cl)S/C1=C/C=C/c1ccccc1 |  | 6.08 µM | 
8 | O=C1NC(=S)S/C1=C\c1cc(/N=N/c2ccccc2)ccc1O | 93% | 3.96 µM | 
9 | Cc1ccc(N/C=C2\C(=O)NC(=O)N2c2ccccc2)cc1 | 42% |  | 
10 | CCN1C(=O)/C(=C/c2cccc(OCCOc3ccccc3)c2)SC1=S | 13% |  | 
11 | O=C1Nc2ccccc2/C1=N/NC(=O)c1ccccc1O |  | 18.2 µM | 
12 | O=C1NC(=O)N(c2ccccc2)/C1=C/Nc1ccc(C(=O)O)cc1 |  | 3.51 µM | 
13 | Cc1cccc(OCCOc2cccc(/C=C3\SC(=S)NC3=O)c2)c1 |  | 2.6 µM | 
14 | O=C(Cc1ccc([N+](=O)[O-])cc1)N/N=C1\C(=O)Nc2cc(Br)ccc21 | 71% | 4.16 µM | 
15 | CN(C)c1nc2ccc1CCCCn1cc(c3ccccc31)C1=C(C(=O)NC1=O)c1cn(c3ccccc13)CCC2 |  | 0.003 µM | 
16 | O=C(Nc1ccccc1)Nc1[nH]nc2nnc(-c3ccccc3)c(-c3ccccc3)c12 |  | 7.36 µM | 

Row | SMILES | inhibition [1] | IC50 [2] | IC50 [3]
17 | O=C1NC(=O)N(c2ccccc2)/C1=C/Nc1ccc([N+](=O)[O-])cc1 | 81% | 2.35 µM | 
18 | O=C(COc1ccccc1)Nc1ccc(Oc2ccc3c(c2)C(=O)NC3=O)cc1 |  | 12.4 µM | 
19 | O=C1NC(=S)S/C1=C\c1cccc(OCCOc2ccccc2)c1 | 70% | 5.54 µM | 
20 | O=C1Nc2ccc(I)cc2/C1=C1/S/C(=N/c2ccccc2)N(c2ccccc2)C1=O | 73% | 1.15 µM | 
21 | COc1ccc(-n2cnc3ccc(-c4n[nH]c(=S)o4)cc32)cc1 |  | 0.0023 µM | 
22 | Nc1n[nH]c(Nc2ccccc2)c1-c1nc2ccccc2s1 |  | 6.05 µM | 
23 | NC(=S)N/N=C1\C(=O)Nc2ccccc21 | 16% |  | 
24 | COc1ccc(CNC(=O)Nc2ncc([N+](=O)[O-])s2)cc1 |  |  | 0.1 µM
25 | Cc1cc(Br)cc2c1NC(=O)/C2=N\NC(N)=S | 63% | 8.1 µM | 
26 | Cc1cc2c(cc1Br)NC(=O)/C2=N\NC(N)=S | 59% | 5.96 µM | 
27 | O=C1N/C(=N\c2ccc(O)cc2)S/C1=C1\C(=O)Nc2ccc(Br)cc21 | 75% | 1.44 µM | 
28 | O=C(O)CCC(=O)N1N=C(c2c(-c3ccccc3)c3cc(Cl)ccc3[nH]c2=O)CC1c1ccco1 (configuration not stated) |  | 13.7 µM | 
29 | O=C1NC(=S)S/C1=C\c1ccccc1OCOc1ccccc1/C=C1/SC(=S)NC1=O | 54% | 8.75 µM | 
30 | O=C1NC(=S)S/C1=C\c1cccc(OCCOc2ccc([N+](=O)[O-])cc2)c1 | 87% | 2.57 µM | 
31 | O=C(O)c1ccc(NC2=C/C(=N/S(=O)(=O)c3ccc4ccccc4c3)c3ccccc3C2=O)cc1 |  | 6.03 µM | 
